We go through five compounds from paper PMC10206524 (European journal of medicinal chemistry, 2022).

What all share (format): biochemical
One assay concerns the target T1, human SIRT1 (Homo sapiens, UniProt Q96EB6).
T1 sequence (Q96EB6 1-747): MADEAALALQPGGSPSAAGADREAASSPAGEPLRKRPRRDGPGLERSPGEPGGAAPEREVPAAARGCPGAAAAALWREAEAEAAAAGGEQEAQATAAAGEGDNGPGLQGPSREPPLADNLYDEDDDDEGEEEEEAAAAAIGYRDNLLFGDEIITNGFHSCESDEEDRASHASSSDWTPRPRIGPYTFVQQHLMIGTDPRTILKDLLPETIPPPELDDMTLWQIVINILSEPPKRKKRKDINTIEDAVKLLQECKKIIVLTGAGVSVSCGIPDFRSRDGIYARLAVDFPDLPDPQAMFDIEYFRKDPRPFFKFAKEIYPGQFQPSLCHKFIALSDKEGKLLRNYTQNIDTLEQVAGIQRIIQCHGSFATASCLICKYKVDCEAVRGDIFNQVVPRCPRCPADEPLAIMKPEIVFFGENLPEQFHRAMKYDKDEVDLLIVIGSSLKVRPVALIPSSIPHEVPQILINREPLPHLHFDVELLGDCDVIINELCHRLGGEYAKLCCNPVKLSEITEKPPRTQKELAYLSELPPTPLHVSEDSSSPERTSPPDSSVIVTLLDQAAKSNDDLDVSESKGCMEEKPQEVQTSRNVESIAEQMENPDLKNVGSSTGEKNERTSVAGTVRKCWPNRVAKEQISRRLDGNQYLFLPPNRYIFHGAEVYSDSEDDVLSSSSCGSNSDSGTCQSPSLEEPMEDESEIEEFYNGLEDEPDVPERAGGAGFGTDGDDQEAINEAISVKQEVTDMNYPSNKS
The experiment in a line: Fluorescence-based inhibition assay, SIRT1. Conditions: at the highest concentration of 400 μM.

The next assay deals with T2, human SIRT2 (Homo sapiens, UniProt Q8IXJ6).
T2 sequence (Q8IXJ6 1-389): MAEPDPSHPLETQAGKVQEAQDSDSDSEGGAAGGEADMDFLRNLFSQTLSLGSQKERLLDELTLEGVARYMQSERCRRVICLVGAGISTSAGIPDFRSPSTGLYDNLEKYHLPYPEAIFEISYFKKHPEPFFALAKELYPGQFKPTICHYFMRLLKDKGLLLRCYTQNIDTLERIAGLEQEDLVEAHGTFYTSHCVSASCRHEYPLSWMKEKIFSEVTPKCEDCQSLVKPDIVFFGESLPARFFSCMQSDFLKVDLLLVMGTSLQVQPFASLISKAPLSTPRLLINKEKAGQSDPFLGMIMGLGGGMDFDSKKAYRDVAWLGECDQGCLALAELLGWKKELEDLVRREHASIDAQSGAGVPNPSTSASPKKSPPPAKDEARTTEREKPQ
The assay is described as follows: Fluorescence-based inhibition assay, SIRT2. Conditions: at the highest concentration of 400 μM.

Another assay has as its target T3, human SIRT3 (Homo sapiens, UniProt Q9NTG7).
T3 sequence (Q9NTG7 1-399): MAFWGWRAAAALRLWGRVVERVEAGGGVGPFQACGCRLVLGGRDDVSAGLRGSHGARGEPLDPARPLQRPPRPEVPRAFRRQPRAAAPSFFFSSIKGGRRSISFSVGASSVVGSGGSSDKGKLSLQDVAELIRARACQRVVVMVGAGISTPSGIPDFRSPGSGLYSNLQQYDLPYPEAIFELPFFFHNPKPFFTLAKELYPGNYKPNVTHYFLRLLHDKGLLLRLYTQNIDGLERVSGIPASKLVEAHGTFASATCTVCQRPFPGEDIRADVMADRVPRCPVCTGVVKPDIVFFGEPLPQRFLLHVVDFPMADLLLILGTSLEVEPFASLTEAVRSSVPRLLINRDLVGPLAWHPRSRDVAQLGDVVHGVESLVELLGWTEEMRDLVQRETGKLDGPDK
The assay is described as follows: Fluorescence-based inhibition assay, SIRT3. To be noted: at the highest concentration of 400 μM.

In the next assay the target is T4, human SIRT5 (Homo sapiens, UniProt Q9NXA8).
T4 sequence (Q9NXA8 37-310): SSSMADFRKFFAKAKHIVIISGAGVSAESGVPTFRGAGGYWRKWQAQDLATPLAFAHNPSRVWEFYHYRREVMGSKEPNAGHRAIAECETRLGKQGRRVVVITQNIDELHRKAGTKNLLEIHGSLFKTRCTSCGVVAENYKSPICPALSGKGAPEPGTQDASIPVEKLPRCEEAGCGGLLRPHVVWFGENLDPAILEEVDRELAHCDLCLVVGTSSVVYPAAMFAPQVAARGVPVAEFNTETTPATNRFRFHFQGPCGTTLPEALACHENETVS
The assay is described as follows: Trypsin coupled fluorescence-based inhibition assay, SIRT5. To be noted: for fold increased potency against SIRT5 in comparison with 11: more potent than hit 11.

Molecules are shown by their SMILES.

Consider `CC(=O)Nc1ccc(-c2csc(Nc3ccc(C(=O)O)c(O)c3)n2)cc1` [Compound 11, 4-((4-(4-acetamidophenyl)thiazol-2-yl)amino)-2-hydroxybenzoic acid], for which, on human SIRT1, the “inhibition against SIRT1” value is listed as “no inhibitions”. Moreover, at human SIRT2, the “inhibition against SIRT2” value is given as “no inhibitions”. For the same compound, the “inhibition against SIRT3” value on human SIRT3 was “no inhibitions”.

On to `CC(=O)Nc1ccc(-c2csc(Nc3ccc(C(=O)O)cc3)n2)cc1` [Compound 13, 4-((4-(4-acetamidophenyl)thiazol-2-yl)amino)benzoic acid], for which the “fold less potent than 11 against SIRT5” value at human SIRT5 (less potent than hit 11) was “about 8 fold”.

Turning to `CC(=O)Nc1ccc(-c2csc(NC(=S)Nc3ccc(C(=O)O)c(O)c3)n2)cc1` [Compound 14, 4-(3-(4-(4-acetamidophenyl)thiazol-2-yl)thioureido)-2-hydroxybenzoic acid], at human SIRT5, the “fold increased potency against SIRT5 in comparison with 11” value (from here on “fold increased potency against SIRT5”) amounted to 2 fold. Further, the “inhibition against SIRT1” value against human SIRT1 is given as “no inhibition”. The “inhibition against SIRT2” value at human SIRT2 is given as “no inhibition”. The “inhibition against SIRT3” value on human SIRT3 was “no inhibition”.

On to `O=C(O)c1ccc(NC(=S)Nc2nc(-c3ccc([N+](=O)[O-])cc3)cs2)cc1O` [Compound 30, 2-hydroxy-4-(3-(4-(4-nitrophenyl)thiazol-2-yl)thioureido)benzoic acid], for which, at human SIRT5, the “fold increased potency against SIRT5” value came to 6 fold.

`O=C(O)c1ccc(NC(=S)Nc2nc(-c3ccc([N+](=O)[O-])c(S(=O)(=O)NCc4ccccc4)c3)cs2)cc1O` [Compound 43, 4-(3-(4-(3-(N-benzylsulfamoyl)-4-nitrophenyl)thiazol-2-yl)thioureido)-2-hydroxybenzoic acid]: the “fold increased potency against SIRT5” value on human SIRT5 is on record as 10 fold. In addition, the “inhibition against SIRT1” value at human SIRT1 is given as “no inhibition”. Also, the “inhibition against SIRT2” value on human SIRT2 was “no inhibition”. In addition, at human SIRT3, the “inhibition against SIRT3” value was “no inhibition”.
